# What was measured:
# Format in all cases: cell-based
# [1] = system: Mia-Paca2; test: Cell proliferation assay (Cell-titer Glo), Mia-Paca2; settings: 96 h
# Experimental: (§1) Cells with different mutations were seeded in low-attachment transparent 96-well plates at the seeding densities shown in Table 1, and incubated overnight in a cell culture incubator. After the cells adhered, the test compounds were added to the 96-well plates at final concentrations of 20000 nM, 5000 nM, 1250 nM, 312.5 nM, 78.13 nM, 19.53 nM, 4.88 nM, 1.22 nM, 0.31 nM, 0 nM (the final concentration of DMSO was 0.25% in all wells). After culturing at 37°C for 96 h, 50 µL of Cell-titer Glo working solution was added to each well. The plates were shaken to mix and then incubated at room temperature for 10 min. Luminescence values were read on a multimode microplate reader, and the luminescence data were converted into percentage inhibition. The percentage of cell proliferation inhibition was calculated according to the following formula: Percentage inhibition = (1−(TestValue−Blank)/(MaxValue−Blank)) × 100% [formula]
# (§2) ("Max value" is from the 0.25% DMSO control wells, "Blank" is from the blank medium control wells, and "Test Value" is from the compound-treated wells).
# (§3) Curve fitting was performed using GraphPad Prism software to obtain IC50 (nM) values.
# [2] = system: AGS; test: Cell proliferation assay (Cell-titer Glo), AGS; settings: KRAS G12D, 96 h
# Experimental: as §1, §2, §3
# [3] = system: H358; test: Cell proliferation assay (Cell-titer Glo), H358; settings: Homo sapiens, NCI-H358, H358, KRAS G12C, 96 h
# Experimental: as §1, §2, §3
# [4] = system: SW620; test: Cell proliferation assay (Cell-titer Glo), SW620; settings: Homo sapiens, SW-620, SW620, KRAS G12V, 96 h
# Experimental: as §1, §2, §3
Molecule,"IC50 ([1]; Homo sapiens, MIA PaCa-2, Mia-Paca2, KRAS G12C)",IC50 ([2]; Homo sapiens),IC50 [3],IC50 [4],"IC50 ([1]; Mia-Paca2, KRAS G12C)",IC50 [2]
"CCc1c(F)ccc2cc(O)cc(-c3ncc4c(N5CCC[C@](O)(CC#N)C5)nc(OCC5(CN6CCC(Oc7cnc(-c8cn([C@H](C(=O)N9C[C@H](O)C[C@H]9C(=O)N[C@@H](C)c9ccc(-c%10scnc%10C)cc9)C(C)C)nn8)cn7)CC6)CC5)nc4c3F)c12 [Compound 57, (2S,4R)-1-((S)-2-(4-(5-((1-((1-(((4-((S)-3-(cyanomethyl)-3-hydroxypiperidin-1-yl)-7-(8-ethyl-7-fluoro-3-hydroxynaphthalen-1-yl)-8-fluoropyrido[4,3-d]pyrimidin-2-yl)oxy)methyl)cyclopropyl)methyl)piperidin-4-yl)oxy)pyrazin-2-yl)-1H-1,2,3-triazol-1-yl)-3-methylbutanoyl)-4-hydroxy-N-((S)-1-(4-(4-methylthiazol-5-yl)phenyl)ethyl)pyrrolidine-2-carboxamide]",,5 nM,20 nM,18 nM,,
"CCc1c(F)ccc2cc(O)cc(-c3ncc4c(N5CCCOCC5)nc(OCC5(CN6CCC(Oc7cnc(-c8cn([C@H](C(=O)N9C[C@H](O)C[C@H]9C(=O)N[C@@H](C)c9ccc(-c%10scnc%10C)cc9)C(C)C)nn8)cn7)CC6)CC5)nc4c3F)c12 [Compound 5, (2S,4R)-1-((S)-2-(4-(5-((1-((1-(((7-(8-ethyl-7-fluoro-3-hydroxynaphthalen-1-yl)-8-fluoro-4-(1,4-oxazepan-4-yl)pyrido[4,3-d]pyrimidin-2-yl)oxy)methyl)cyclopropyl)methyl)piperidin-4-yl)oxy)pyrazin-2-yl)-1H-1,2,3-triazol-1-yl)-3-methylbutanoyl)-4-hydroxy-N-((S)-1-(4-(4-methylthiazol-5-yl)phenyl)ethyl)pyrrolidine-2-carboxamide]",,20 nM,55 nM,34 nM,,
"CCc1c(F)ccc2cc(O)cc(-c3ncc4c(N5CCCS(=O)(=O)C5)nc(OCC5(CN6CCC(Oc7cnc(-c8cn([C@H](C(=O)N9C[C@H](O)C[C@H]9C(=O)N[C@@H](C)c9ccc(-c%10scnc%10C)cc9)C(C)C)nn8)cn7)CC6)CC5)nc4c3F)c12 [Compound 7, (2S,4R)-1-((S)-2-(4-(5-((1-((1-(((4-(1,1-dioxido-1,3-thiazinan-3-yl)-7-(8-ethyl-7-fluoro-3-hydroxynaphthalen-1-yl)-8-fluoropyrido[4,3-d]pyrimidin-2-yl)oxy)methyl)cyclopropyl)methyl)piperidin-4-yl)oxy)pyrazin-2-yl)-1H-1,2,3-triazol-1-yl)-3-methylbutanoyl)-4-hydroxy-N-((S)-1-(4-(4-methylthiazol-5-yl)phenyl)ethyl)pyrrolidine-2-carboxamide]",,6.2 nM,,31 nM,,

# More lines, now with the values ahead:
"IC50 ([1]; Homo sapiens, MIA PaCa-2, Mia-Paca2, KRAS G12C)",IC50 ([2]; Homo sapiens),IC50 [3],IC50 [4],"IC50 ([1]; Mia-Paca2, KRAS G12C)",IC50 [2],Molecule
26 nM,15 nM,40 nM,36 nM,,,"CCc1c(F)ccc2cc(O)cc(-c3nc4c5c(nc(OCC6(CN7CCC(Oc8cnc(-c9cn([C@H](C(=O)N%10C[C@H](O)C[C@H]%10C(=O)N[C@@H](C)c%10ccc(-c%11scnc%11C)cc%10)C(C)C)nn9)cn8)CC7)CC6)nc5c3F)N3CCCC(C)(O)C3CO4)c12 (stereo partly drawn) [Compound 133, (2S,4R)-1-((2S)-2-(4-(5-((1-((1-(((5-(8-ethyl-7-fluoro-3-hydroxynaphthalen-1-yl)-4-fluoro-9-hydroxy-9-methyl-8,8a,9,10,11,12-hexahydro-7-oxa-1,3,6,12a-tetraazabenzo[4,5]cyclohepta[1,2,3-de]naphthalen-2-yl)oxy)methyl)cyclopropyl)methyl)piperidin-4-yl)oxy)pyrazin-2-yl)-1H-1,2,3-triazol-1-yl)-3-methylbutanoyl)-4-hydroxy-N-((S)-1-(4-(4-methylthiazol-5-yl)phenyl)ethyl)pyrrolidine-2-carboxamide]"
,30 nM,56 nM,43 nM,,,"CCc1c(F)ccc2cc(O)cc(-c3ncc4c(N5CCCC6(CCO6)C5)nc(OCC5(CN6CCN(c7ccc(-c8cn([C@H](C(=O)N9C[C@H](O)C[C@H]9C(=O)N[C@@H](C)c9ccc(-c%10scnc%10C)cc9)C(C)C)nn8)cn7)CC6)CC5)nc4c3F)c12 (stereo partly drawn) [Compound 111, (2S,4R)-1-((2S)-2-(4-(6-(4-((1-(((7-(8-ethyl-7-fluoro-3-hydroxynaphthalen-1-yl)-8-fluoro-4-(1-oxa-6-azaspiro[3.5]nonan-6-yl)pyrido[4,3-d]pyrimidin-2-yl)oxy)methyl)cyclopropyl)methyl)piperazin-1-yl)pyridin-3-yl)-1H-1,2,3-triazol-1-yl)-3-methylbutanoyl)-4-hydroxy-N-((S)-1-(4-(4-methylthiazol-5-yl)phenyl)ethyl)pyrrolidine-2-carboxamide]"
,2.7 nM,,10 nM,,,"CCc1c(F)ccc2cc(O)cc(-c3ncc4c(N5CCOC[C@@](C)(O)C5)nc(OCC5(CN6CCC(Oc7cnc(-c8cn([C@H](C(=O)N9C[C@H](O)C[C@H]9C(=O)N[C@@H](C)c9ccc(-c%10scnc%10C)cc9)C(C)C)nn8)cn7)CC6)CC5)nc4c3F)c12 [Compound 114, (2S,4R)-1-((S)-2-(4-(5-((1-((1-(((7-(8-ethyl-7-fluoro-3-hydroxynaphthalen-1-yl)-8-fluoro-4-((S)-6-hydroxy-6-methyl-1,4-oxazepan-4-yl)pyrido[4,3-d]pyrimidin-2-yl)oxy)methyl)cyclopropyl)methyl)piperidin-4-yl)oxy)pyrazin-2-yl)-1H-1,2,3-triazol-1-yl)-3-methylbutanoyl)-4-hydroxy-N-((S )-1-(4-(4-methylthiazol-5-yl)phenyl)ethyl)pyrrolidine-2-carboxamide]"
,80 nM,,325 nM,,,"CCc1c(F)ccc2cc(O)cc(-c3ncc4c(N5CCCCC(=O)C5)nc(OCC5(CN6CCC(Oc7cnc(-c8cn([C@H](C(=O)N9C[C@H](O)C[C@H]9C(=O)N[C@@H](C)c9ccc(-c%10scnc%10C)cc9)C(C)C)nn8)cn7)CC6)CC5)nc4c3F)c12 [Compound 113, (2S,4R)-1-((S)-2-(4-(5-((1-((1-(((7-(8-ethyl-7-fluoro-3-hydroxynaphthalen-1-yl)-8-fluoro-4-(3-oxoazepan-1-yl)pyrido[4,3-d]pyrimidin-2-yl)oxy)methyl)cyclopropyl)methyl)piperidin-4-yl)oxy)pyrazin-2-yl)-1H-1,2,3-triazol-1-yl)-3-methylbutanoyl)-4-hydroxy-N-((S)-1-(4-(4-methylthiazol-5-yl)phenyl)ethyl)pyrrolidine-2-carboxamide]"
,,,,67 nM,34 nM,"(2S,4R)-1-((2S)-2-(4-(5-((1-((1-(((7-(8-ethyl-7-fluoro-3-hydroxynaphthalen-1-yl)-8-fluoro-4-(3-h ydroxy-3-methylazepan-1-yl)pyrido[4,3-d]pyrimidin-2-yl)oxy)methyl)cyclopropyl)methyl)piperi din-4-yl)oxy)pyrazin-2-yl)-1H-1,2,3-triazol-1-yl)-3-methylbutanoyl)-4-hydroxy-N-((S)-1-(4-(4-methylthiazol-5-yl)phenyl)ethyl)pyrrolidine-2-carboxamide [Compound 134]"

# — patent EP4813978A1, “COMPOUND TARGETING UBIQUITIN KRAS PROTEIN DEGRADATION AGENT, AND USE THEREOF” (Betta Pharmaceuticals Co., Ltd, priority 2023, dated 2025)
